Values after ≈ are worked out from the molar mass of the structure shown. Non-standard residues stand in square brackets, D forms with d. Residues, ends and D or L forms follow the SMILES beside them. N(5-aminopentyl)Gly = NCCCCCNCC(=O)O; Gly(N-2-aminoethyl) = NCCNCC(=O)O; Gly(N(CH2)3NH2) = NCCCNCC(=O)O; Nphe = O=C(O)CNCc1ccccc1
Assays:
[1] = set-up: method as in PMID 29198866; details: peptoid oligomers; cited from earlier work
[2] = test system: human red blood cells; details: cited from earlier work
[3] = Relative hydrophobicity by RP-HPLC (% MeCN at peak elution); assay type: physicochemical; details: RP-HPLC gradient 0 → 60% B during 10 min; % MeCN at peak elution calculated from retention time
Method: The relative hydrophobicity of each peptidomimetic was measured by reverse-phase high-performance liquid chromatography (RP-HPLC). Typically, the RP-HPLC retention time (or percentage acetonitrile at peak elution) constitutes the preferred measure that allows for comparison of relative hydrophobicity, while log P values of polycationic peptides or peptidomimetics normally are considered unsuitable due to the extreme hydrophilic nature of such compounds [11, 45, 57, 58, 59, 60]. […] For both subgroups III (with cationic amino acid residues and the peptoid analogue of Phe, NPhe, i.e., 9–12) and IV (with cationic amino acid residues and the peptoid analogue of hPhe, NhPhe, i.e., 13–16) only minor differences in hydrophobicity were seen. These observations infer that, when the cationic residues are of a peptoid nature, the side-chain length of these has a […] influence on the hydrophobicity. […] Thus, introduction of additional six methylene groups results, as expected, in increased hydrophobicity.
Starting materials and solvents were purchased from commercial suppliers (Iris Biotech, Markredwitz, Germany; Fluorochem, Hadfield, United Kingdom; and Merck, Darmstadt, Germany) and used without further purification. Water used for analytical and preparative high-performance liquid chromatography (HPLC) was filtered through a 0.22-μm Millipore membrane filter. Purity and retention time of each peptidomimetic were determined by analytical UHPLC by using a Phenomenex Luna C18(2) HST column (100 mm × 3 mm; particle size: 2.5 μm; pore size: 100 Å) on a Shimadzu Prominence and Shimadzu Nexera system using an aqueous acetonitrile (MeCN) gradient with 0.1% trifluoroacetic acid (TFA) added (eluent A: 5:95 MeCN–H2O + 0.1% TFA, eluent B: 95:5 MeCN–H2O + 0.1% TFA); a flow rate of 0.5 mL/min was used. For elution of peptidomimetics, a linear gradient of 0% to 60% B during 10 min was used with UV detection at λ = 220 nm. […] For each peptidomimetic, the percentage of MeCN at peak elution was calculated from the retention time by using the following formula:(1) %MeCN = 0.95 (0.6Rt/10 min.) + 0.05 (1−0.6Rt/10 min.).

[4] = test system: A. baumannii ATCC 19606; assay type: cell-based; details: ATCC 19606, 20 h
Method: (§1) MIC values were evaluated by using the modified Hancock lab protocol in non-binding polystyrene microtitre plates, with bacterial suspensions of ∼2 × 10^5 CFU/mL in Mueller-Hinton broth (Difco, Sparks MD, USA), with Mg^2+ and Ca^2+ concentrations of 4 mg/L each. The compounds were dissolved in H2O and diluted in 0.01% acetic acid, 0.2% BSA (final concentration). Aliquots of 11 µL of 10 × test compounds were then transferred to the appropriate wells with bacterial suspensions. For preparation and transfer of the solutions of the compounds, low-binding sterile tubes and tips (Axygen, Union City CA, USA) were used. After 20 h incubation of covered plates at 35 °C (±2 °C) with circular shaking at 220 rpm, the MICs were read. The antibacterial activity of peptidomimetics was tested against E. coli ATCC 25922, K. pneumoniae ATCC 13883, P. aeruginosa ATCC 27853, P. aeruginosa PAO1, A. baumannii ATCC 19606, S. aureus ATCC 29213, and E. faecalis ATCC 29212.

[5] = test system: E. coli ATCC 25922; assay type: cell-based; details: ATCC 25922, 20 h
Method: as §1

[6] = test system: E. faecalis ATCC 29212; assay type: cell-based; details: ATCC 29212, 20 h
Method: as §1

[7] = test system: K. pneumoniae ATCC 13883; assay type: cell-based; details: ATCC 13883, 20 h
Method: as §1

[8] = test system: P. aeruginosa ATCC 27853; assay type: cell-based; details: ATCC 27853, 20 h
Method: as §1

[9] = test system: P. aeruginosa PAO1; assay type: cell-based; details: PAO1, 20 h
Method: as §1

[10] = test system: S. aureus ATCC 29213; assay type: cell-based; details: ATCC 29213, 20 h
Method: as §1

[11] = in vitro; assay type: cell-based; details: human
Method: (§2) Side effects affecting cell viability were estimated on the HepG2 cell line ATCC HB-8065. In brief, HepG2 cells were seeded in flat-bottomed 96-well plates at a concentration of 5000 cells per well. At 80−90% confluency, the cells were incubated for 24 h in a humidified incubator (5% CO2, 37 °C). The medium was removed, and the cells were incubated for 48 h in a humidified incubator (5% CO2, 37 °C) with compounds in two-fold serial dilutions. An MTT assay was then performed as previously described. In brief, after incubation with the test compounds, the culture medium was removed and fresh medium with 0.2 mg/mL MTT was added in each well of the plate. After incubation (3 h, 37 °C, 5% CO2), the medium with MTT was removed, and 200 μL dimethyl sulfoxide were added at once to each sample. Absorbance of MTT was measured using spectrophotometer TECAN Infinite M1000 at 540 nm. The relative viability was calculated by using the formula: ODtreated cells × 100/ODcontrol cells. The IC50 values are calculated by using the program Graph Pad Prism® 5.0. For all compounds, the test range was 10–1280 μg/mL.

[12] = test system: HepG2 cell line ATCC HB-8065; assay: in vitro; assay type: cell-based; details: 48 h
Method: as §2

[13] = in vitro; assay type: cell-based; details: human, Hemolytic Activity (percentage hemolysis)
Method: The lysis of human red blood cells was measured as previously described, with modifications. In brief, freshly drawn human red blood cells (hRBCs) were washed three times with PBS buffer and centrifuged two times for 5 min at 2500 rpm. A two-fold serial dilution of peptidomimetics in PBS buffer was added to each well in a sterile polypropylene V-bottom 96-well plate to the total volume of 75 μL. A 0.5% v/v hRBC suspension (75 μL in PBS buffer) was added to each well to reach a final volume of 150 μL in each well. The plate was incubated (37 °C) for 60 min, and then the cells were subsequently pelleted by centrifugation at 1000 rpm for 5 min. The supernatants (50 μL) were transferred to clear, flat-bottomed plastic 96-well plates. The concentration of hemoglobin was detected by measuring the OD at 405 nm. The OD of cells incubated with 0.1% SDS defined 100% hemolysis, while the OD of cells incubated with PBS buffer defined 0% hemolysis. The concentrations tested were 200, 400, and 800 μg/mL (only average values for the highest concentration are stated in Table 2).

Compound | Hydrophobicity (% MeCN at peak elution) [1] | Concentration resulting in 10% hemolysis [2] | Hydrophobicity (% MeCN at elution) [3] | MIC [4] | MIC [5] | MIC [6] | MIC [7] | MIC [8] | MIC [9] | MIC [10] | viability at 48 h, 1280 µg/mL [11] | IC50 for inhibiting growth of HepG2 cells [12] | hemolysis at 60 min, 800 µg/mL [13]
H-(NLys-Nspe-Nspe)4-NH2 | 53.6 % MeCN | 9.1 µM |  |  |  |  |  |  |  |  |  |  | 
NCCCCCNCC(=O)N[C@@H](Cc1ccccc1)C(=O)N(CCCCCN)CC(=O)N[C@@H](Cc1ccccc1)C(=O)N(CCCCCN)CC(=O)N[C@@H](Cc1ccccc1)C(=O)N(CCCCCN)CC(=O)N[C@@H](Cc1ccccc1)C(=O)N(CCCCCN)CC(=O)N[C@@H](Cc1ccccc1)C(=O)N(CCCCCN)CC(=O)N[C@@H](Cc1ccccc1)C(N)=O [Peptidomimetic 4] (H-[N(5-aminopentyl)Gly]F[N(5-aminopentyl)Gly]F[N(5-aminopentyl)Gly]F[N(5-aminopentyl)Gly]F[N(5-aminopentyl)Gly]F[N(5-aminopentyl)Gly]F-NH2) |  |  | 36.6% | 64 µg/mL (≈ 36.5 µM) | 4 to 8 µg/mL | >64 µg/mL | 64 µg/mL (≈ 36.5 µM) | >64 µg/mL | >64 µg/mL | >64 µg/mL | 49% | 1280 µg/mL | 9%
NCCNCC(=O)N[C@@H](Cc1ccccc1)C(=O)N(CCN)CC(=O)N[C@@H](Cc1ccccc1)C(=O)N(CCN)CC(=O)N[C@@H](Cc1ccccc1)C(=O)N(CCN)CC(=O)N[C@@H](Cc1ccccc1)C(=O)N(CCN)CC(=O)N[C@@H](Cc1ccccc1)C(=O)N(CCN)CC(=O)N[C@@H](Cc1ccccc1)C(N)=O [Peptidomimetic 1] (H-[Gly(N-2-aminoethyl)]F[Gly(N-2-aminoethyl)]F[Gly(N-2-aminoethyl)]F[Gly(N-2-aminoethyl)]F[Gly(N-2-aminoethyl)]F[Gly(N-2-aminoethyl)]F-NH2) |  |  | 37.5% | >64 µg/mL | 4 to 8 µg/mL | >64 µg/mL | 64 µg/mL (≈ 42.6 µM) | 64 µg/mL (≈ 42.6 µM) | >64 µg/mL | >64 µg/mL | 49% | 1280 µg/mL | 7%
NCCCNCC(=O)N[C@@H](Cc1ccccc1)C(=O)N(CCCN)CC(=O)N[C@@H](Cc1ccccc1)C(=O)N(CCCN)CC(=O)N[C@@H](Cc1ccccc1)C(=O)N(CCCN)CC(=O)N[C@@H](Cc1ccccc1)C(=O)N(CCCN)CC(=O)N[C@@H](Cc1ccccc1)C(=O)N(CCCN)CC(=O)N[C@@H](Cc1ccccc1)C(N)=O [Peptidomimetic 2] (H-[Gly(N(CH2)3NH2)]F[Gly(N(CH2)3NH2)]F[Gly(N(CH2)3NH2)]F[Gly(N(CH2)3NH2)]F[Gly(N(CH2)3NH2)]F[Gly(N(CH2)3NH2)]F-NH2) |  |  | 35.7% | >64 µg/mL | 8 to 16 µg/mL | >64 µg/mL | 64 µg/mL (≈ 40.4 µM) | >64 µg/mL | >64 µg/mL | >64 µg/mL | 62% | >1280 µg/mL | 5%
NCCCC[C@H](NC(=O)CN(Cc1ccccc1)C(=O)[C@H](CCCCN)NC(=O)CN(Cc1ccccc1)C(=O)[C@H](CCCCN)NC(=O)CN(Cc1ccccc1)C(=O)[C@H](CCCCN)NC(=O)CN(Cc1ccccc1)C(=O)[C@H](CCCCN)NC(=O)CN(Cc1ccccc1)C(=O)[C@@H](N)CCCCN)C(=O)N(CC(N)=O)Cc1ccccc1 [Peptidomimetic 11] (H-K[Nphe]K[Nphe]K[Nphe]K[Nphe]K[Nphe]K[Nphe]-NH2) |  |  | 36.9% | >64 µg/mL | 4 to 8 µg/mL | >64 µg/mL | 64 µg/mL (≈ 38.3 µM) | 4 µg/mL (≈ 2.4 µM) | 8 to 16 µg/mL | >64 µg/mL | 76% | >1280 µg/mL | 10%
